# Where two headings read alike, the source gives them in different places.
# What was measured:
# NCI H460 xenograft = experiment: NCI H460 non small cell lung carcinoma xenograft mouse model (Example 48); format: in vivo; conditions: day 29, vs vehicle
# Description: Female CB17/SCID mice (purchased from Charles River, Cambridge, Mass.), 7-8 weeks of age, were allowed to acclimatize for at least three days, and handled under pathogen-free conditions. Human […] cell line NCI H460 was obtained from the American Type Culture Collection. The cell lines were cultured and harvested according to the procedure described in Example 47 and inoculated at 1×10^6 cells/animal in the peritoneal subcutaneous space. When the tumors grew to an average volume of 100 mm^3 (day 8), […], as tabulated in the table below: Compound 25 (2.5 mg/ml in 10% PEG; administration route—i.p.) and Taxol (1 mg/ml in 5% EtOH, 5% Cremophor and 90% saline; administration—i.v. 2 h after administration of Compound 25). The body weight and tumor volumes were measured as described in Example 47 above.
# Results are presented in Table X2 based on tumor volume measurement on day 29 when vehicle treated mice had reached a volume of 946 mm^3. Groups of 5 mice receiving saline or no treatment were added in order to indicate any vehicle effects but are not used for comparisons in this analysis.
# HT29 cells = experiment: Clonogenic assay - oxygen dependence; conditions: Homo sapiens
# AA8 = experiment: Clonogenic survival - DNA mutant repair cells; conditions: Cricetulus griseus
smiles,measurement,setting,value
Cn1c(COP(=O)(NCCBr)NCCBr)cnc1[N+](=O)[O-] [Compound 25],% Inhibition vs Group 2,NCI H460 xenograft; Group 3: Compound 25 25 mg/kg (q1d × 5)/week × 2 weeks,50.1%
same,% Inhibition vs Group 2,NCI H460 xenograft; Group 4: Compound 25 50 mg/kg (q2d × 3)/week × 2 weeks,52%
same,% Inhibition vs Group 2,NCI H460 xenograft; Group 5: Compound 25 100 mg/kg (q7d × 1)/week × 2 weeks,46.7%
same,IC90,"HT29 cells; HT-29, read-out: IC90 HT29 0.6% O2",3 µM
same,IC90,"HT29 cells; HT-29, read-out: IC90 HT29 Air",40 µM
same,IC90,"HT29 cells; HT-29, read-out: IC90 HT29 N2",0.2 µM
same,IC90,"AA8; CHO-AA8, read-out: IC90 AA8 Air",> 300 µM
same,IC90,"AA8; CHO-AA8, read-out: IC90 AA8 N2",0.85 µM

# Reference: patent US8507464B2, “Phosphoramidate alkylator prodrugs” (Threshold Pharmaceuticals, Inc., priority 2005, dated 2013)
